# From patent publication US8003602B2 (priority 2006, dated 2011)
# Assays:
# S. aureus KEM-MRSA22 = experiment: MIC, Macro-broth dilution method; format: cell-based, Staphylococcus aureus
# Excerpt: (§1) The in-vitro potency was established by minimum inhibitory concentration (MIC) determinations of the compound PM181104 against bacterial strains, by using the Macro-broth dilution method as per National Committee for Clinical Laboratory Standards (2000) guidelines [Journal of Anti-microbial Chemotherapy, 2002, 50, 125-128 (Cross Reference 8: Methods for Dilution Antimicrobial Susceptibility Tests for Bacteria that Grow Aerobically-Fifth Edition: Approved Standard M7-A5. NCCLS, Wayne, Pa., USA)]. Unless stated otherwise, Mueller-Hinton broth was used as nutrient medium for the assay. Linezolid (manufactured by Glenmark Pharma Ltd; Batch no: K2005028) was used as known standard in all in-vitro experiments. For preparation of the stock solution the compound PM181104 was dissolved in chloroform (5% of the total required volume) and diluted using methanol (95% of the total required volume).
# S. aureus KEM-MRSA1 = experiment: MIC, Macro-broth dilution method; format: cell-based, Staphylococcus aureus
# Excerpt: as §1
# S. aureus Rehaja-MRSA1 = experiment: MIC, Macro-broth dilution method; format: cell-based, Staphylococcus aureus
# Excerpt: as §1
# S. aureus KEM-MRSA19 = experiment: MIC, Macro-broth dilution method; format: cell-based, Staphylococcus aureus
# Excerpt: as §1
# S. aureus KEM-MRSA12 = experiment: MIC, Macro-broth dilution method; format: cell-based, Staphylococcus aureus
# Excerpt: as §1
# S. aureus C1 3184 = experiment: MIC, Macro-broth dilution method; format: cell-based, Staphylococcus aureus
# Excerpt: as §1
# S. aureus KEM-MRSA20 = experiment: MIC, Macro-broth dilution method; format: cell-based, Staphylococcus aureus
# Excerpt: as §1
# S. aureus KEM-MRSA21 = experiment: MIC, Macro-broth dilution method; format: cell-based, Staphylococcus aureus
# Excerpt: as §1
# S. aureus (3066) = experiment: MIC, Macro-broth dilution method; format: cell-based, Staphylococcus aureus
# Excerpt: as §1
# S. aureus wien8 = experiment: MIC, Macro-broth dilution method; format: cell-based, Staphylococcus aureus
# Excerpt: as §1
# S. aureus ATCC29213 = experiment: MIC, Macro-broth dilution method; format: cell-based, Staphylococcus aureus
# Excerpt: as §1
# S. aureus KEM-MRSA8 = experiment: MIC, Macro-broth dilution method; format: cell-based, Staphylococcus aureus
# Excerpt: as §1
# S. aureus KEM-MRSA7 = experiment: MIC, Macro-broth dilution method; format: cell-based, Staphylococcus aureus
# Excerpt: as §1
# S. aureus (789) = experiment: MIC, Macro-broth dilution method; format: cell-based, Staphylococcus aureus
# Excerpt: as §1
# S. aureus KEM-MRSA2 = experiment: MIC, Macro-broth dilution method; format: cell-based, Staphylococcus aureus
# Excerpt: as §1
# S. aureus wien13 = experiment: MIC, Macro-broth dilution method; format: cell-based, Staphylococcus aureus
# Excerpt: as §1
# E. faecium (R-2) = format: cell-based, Enterococcus faecium; details: E. faecium R-2 (VRE)
# Excerpt: as §1
# E. faecium ATCC 51559 = format: cell-based, Enterococcus faecium
# Excerpt: as §1
# E. faecalis (FH-1) = experiment: MIC, Macro-broth dilution method; format: cell-based
# Excerpt: as §1
# E. faecalis (uD.8b) = experiment: MIC, Macro-broth dilution method; format: cell-based
# Excerpt: as §1
# Klebsiella pneumoniae = experiment: MIC, Macro-broth dilution method; format: cell-based
# Excerpt: as §1
# Enterococci KEM-VRE26 = experiment: MIC, Macro-broth dilution method; format: cell-based
# Excerpt: as §1
# Streptococcus hirae 55 = experiment: MIC, Macro-broth dilution method; format: cell-based
# Excerpt: as §1
# [1] = test system: Streptococcus equinus 02 D5 Gr1; experiment: MIC, Macro-broth dilution method; format: cell-based
# Excerpt: as §1
# Pse. aeruginosa (M-35) = experiment: MIC, Macro-broth dilution method; format: cell-based
# Excerpt: as §1
# [2] = test system: Streptococcus durans 4939 (1) H; experiment: MIC, Macro-broth dilution method; format: cell-based
# Excerpt: as §1
# Enterococci KEM-VRE28 = experiment: MIC, Macro-broth dilution method; format: cell-based
# Excerpt: as §1
# [3] = test system: Citrobacter diversus 2046 E; experiment: MIC, Macro-broth dilution method; format: cell-based
# Excerpt: as §1
# E. faecalis ATCC BAA 472 = experiment: MIC, Macro-broth dilution method; format: cell-based
# Excerpt: as §1
# Enterococci KEM-VRE29 = experiment: MIC, Macro-broth dilution method; format: cell-based
# Excerpt: as §1
# Salmonella typhi Para A = experiment: MIC, Macro-broth dilution method; format: cell-based
# Excerpt: as §1
# E. faecalis 4073H = experiment: MIC, Macro-broth dilution method; format: cell-based
# Excerpt: as §1
# Streptococcus durans = experiment: MIC, Macro-broth dilution method; format: cell-based
# Excerpt: as §1
# E. coli SS = experiment: MIC, Macro-broth dilution method; format: cell-based
# Excerpt: as §1
# Enterococci KEM-VRE27 = experiment: MIC, Macro-broth dilution method; format: cell-based
# Excerpt: as §1
structure (smiles),measurement,setting,value
C=C(NC(=O)C(=C)NC(=O)C1CCCN1C(=O)c1nc(-c2ccc(-c3nc(C(=O)NC(=C)C(=O)NC(C)C(N)=O)cs3)c(-c3csc(C4Cc5nc(cs5)C(=O)NC(Cc5ccccc5)C5=NC(CS5)C(=O)NC(Cc5ccc(O)cc5)C(=O)N5CCCC5c5nc(cs5)C(=O)N4)n3)n2)oc1C)C(N)=O (centres unmarked) [PM181104],MIC,S. aureus KEM-MRSA22,0.00781 µg/mL
same,MIC,S. aureus KEM-MRSA1,0.03125 µg/mL
same,MIC,S. aureus Rehaja-MRSA1,0.03125 µg/mL
same,MIC,S. aureus KEM-MRSA19,0.00781 µg/mL
same,MIC,S. aureus KEM-MRSA12,0.01563 µg/mL
same,MIC,S. aureus C1 3184,0.0625 µg/mL
same,MIC,S. aureus KEM-MRSA20,0.01563 µg/mL
same,MIC,S. aureus KEM-MRSA21,0.01563 µg/mL
same,MIC,S. aureus (3066),0.03125 µg/mL
same,MIC,S. aureus wien8,0.01563 µg/mL
same,MIC,S. aureus ATCC29213,0.03125 µg/mL
same,MIC,S. aureus KEM-MRSA8,0.01563 µg/mL
same,MIC,S. aureus KEM-MRSA7,0.01563 µg/mL
same,MIC,S. aureus (789),0.00781 µg/mL
same,MIC,S. aureus KEM-MRSA2,0.03125 µg/mL
same,MIC,S. aureus wien13,0.0625 µg/mL
same,MIC,E. faecium (R-2),0.00781 µg/mL
same,MIC,E. faecium ATCC 51559,0.00781 µg/mL
same,MIC,E. faecalis (FH-1),0.00391 µg/mL
same,MIC,E. faecalis (uD.8b),0.00391 µg/mL
same,MIC,Klebsiella pneumoniae,>1 µg/mL
same,MIC,Enterococci KEM-VRE26,0.00781 µg/mL
same,MIC,Streptococcus hirae 55,0.00391 µg/mL
same,MIC,[1],0.01563 µg/mL
same,MIC,Pse. aeruginosa (M-35),>1 µg/mL
same,MIC,[2],0.00781 µg/mL
same,MIC,Enterococci KEM-VRE28,0.00781 µg/mL
same,MIC,[3],>1 µg/mL
same,MIC,E. faecalis ATCC BAA 472,0.01563 µg/mL
same,MIC,Enterococci KEM-VRE29,0.00391 µg/mL
same,MIC,Salmonella typhi Para A,>1 µg/mL
same,MIC,E. faecalis 4073H,0.00781 µg/mL
same,MIC,Streptococcus durans,0.00781 µg/mL
same,MIC,E. coli SS,>1 µg/mL
same,MIC,Enterococci KEM-VRE27,0.00391 µg/mL
